Key:
[1] = tested on: oil field isolated anaerobic SRB consortium; experiment: MBC against anaerobic SRB consortium, 40° C., 24 hour (Example 1); assay type: cell-based, anaerobic sulfate-reducing bacteria (SRB)
Experimental: (§1) The synergy indexes reported in the following examples are calculated using the following equation: Synergy Index=Ca/CA+Cb/CB
(§2) Various methods known to those skilled in the art can be used for evaluating biocidal efficacy. In the examples below, aliquots of the treated samples are removed at predetermined time points and the concentration required to achieve a certain level or complete bacterial kill is determined by culture-based methods including serial dilution. In some examples, the method is based or adapted (e.g., for high temperature testing or for the presence of sulfide) from the methodology described in international application PCT/US08/075,755, filed Sep. 10, 2008, which is incorporated herein by reference.
Inside an anaerobic chamber, a deaerated sterile salt solution (3.1183 g of NaCl, 1.3082 mg of NaHCO3, 47.70 mg of KCl, 72.00 mg of CaCl2, 54.49 mg of MgSO4, 172.28 mg of Na2SO4, 43.92 mg of Na2CO3 in 1 L water) is contaminated with an oil field isolated anaerobic SRB consortium at final bacterial concentrations of 10^6-10^7 CFU/mL. Aliquots of this contaminated water are then treated with biocide solution (single or in combination) at various concentrations.

[2] = tested on: Psedomonas aeruginosa ATCC 10145 and Staphylococcus aureus ATCC 6538; experiment: MBC against aerobic bacteria, 37° C., 24 hour (Example 2); assay type: cell-based
Experimental: as §1, §2
A sterile NaCl solution (0.85%) is contaminated with Psedomonas aeruginosa ATCC 10145 and Staphylococcus aureus ATCC 6538 at a final bacterial concentration of ˜10^6 CFU/ml. Aliquots of this contaminated water are then treated with biocide solution (single or in combination) at various concentrations.

[3] = tested on: mixed bacteria consortium (Pseudomonas aeruginosa ATCC 10145, Pseudomonas aeruginosa ATCC 15422, Enterobacter aerogenes ATCC 13048, Escherichia coli ATCC …); experiment: Re-challenge test against aerobic mixed bacteria consortium (Example 3); assay type: cell-based; details: ambient temperature; for Dose required for ≧4 log10 bacteria reduction (ppm), CTAC: CTAC alone or CTAC part of DBNPA/CTAC combination; for Dose required for ≧4 log10 bacteria reduction (ppm), DBNPA: DBNPA alone or DBNPA part of DBNPA/CTAC combination
Experimental: as §1, §2
(§3) DBNPA and CTAC is added to a sterile solution of synthetic surface water (CaCl2 0.2203 g, MgSO4 0.1847 g, NaHCO3 0.1848 g, DI water 1 L) both alone and in various combinations. An initial inoculum of a mixed bacteria consortium (Pseudomonas aeruginosa ATCC 10145, Pseudomonas aeruginosa ATCC 15422, Enterobacter aerogenes ATCC 13048, Escherichia coli ATCC 11229, Klebsiella pneumoniae ATCC 8308, Staphylococcus aureus ATCC 6538, Salmonella choleraesuis ATCC 10708) is added to each biocidal solution at a final concentration of 5×10^6 CFU/mL. After 2, 6 and 13 days, the biocidal solutions are re-challenged with the same bacteria consortium to a final concentration of 5×10^4 CFU/mL of additional bacteria. All treatments are incubated at ambient temperatures. The results are shown in Table 7 which reports the biocide concentrations required to achieve a ≧4 log10 kill reduction in microorganisms.

[4] = tested on: oil field isolated anaerobic SRB consortium; experiment: Anaerobic bacteria under sulfide-rich and multiple challenge conditions (Example 4); assay type: cell-based, anaerobic sulfate-reducing bacteria (SRB); details: room temperature, daily challenge with SRB and 10 ppm sulfide ion
Experimental: as §1
as §2, with “10, 2008, which is incorporated herein by reference.” left out
Inside an anaerobic chamber, biocide solutions of DBNPA, CTAC, and DBNPA/CTAC combinations at various concentrations are prepared in a salt solution (3.1183 g of NaCl, 1.3082 mg of NaHCO3, 47.70 mg of KCl, 72.00 mg of CaCl2, 54.49 mg of MgSO4, 172.28 mg of Na2SO4, 43.92 mg of Na2CO3 in 1 L water). […] The viable bacteria left in the mixtures is determined at different incubation times up to 7 days, using a serial dilution method. Bacterial log reduction is then calculated. The biocidal efficacy is determined by selecting the lowest biocide concentration required to achieve at least a 99.9% bacterial reduction for all three of the following time points: 2 hour, 1 day, and 7 days. Synergy index is then calculated.

[5] = tested on: oil field isolated anaerobic SRB consortium; experiment: Anaerobic bacteria under high temperature, sulfide-rich and re-challenge conditions (Example 5); assay type: cell-based, anaerobic sulfate-reducing bacteria (SRB); details: 80° C., daily challenge with SRB and 10 ppm sulfide ion
Experimental: as §1, §2
Inside an anaerobic chamber, biocide solutions of DBNPA, CTAC, and DBNPA/CTAC combinations at various concentrations are prepared in a salt solution (3.1183 g of NaCl, 1.3082 mg of NaHCO3, 47.70 mg of KCl, 72.00 mg of CaCl2, 54.49 mg of MgSO4, 172.28 mg of Na2SO4, 43.92 mg of Na2CO3 in 1 L water). […] After heating at 80 C for 2 hours, biocidal efficacy is evaluated against the field SRB consortium at 40° C. for 2 h. The same samples, after heating for 1 day to 7 days at 80 C, are evaluated against the field SRB consortium at 40 C for 24 h. […]

[6] = tested on: mixed bacteria consortium (Pseudomonas aeruginosa ATCC 10145, Pseudomonas aeruginosa ATCC 15422, Enterobacter aerogenes ATCC 13048, Escherichia coli ATCC …); experiment: Ternary DBNPA, CTAC and bronopol combination, re-challenge test against mixed bacteria consortium (Example 6); assay type: cell-based, mixed aerobic bacteria; details: for Dose required for >4 log10 bacterial reduction vs. control, CTAC: CTAC alone or CTAC part of DBNPA:bnpd:CTAC combination; for Dose required for >4 log10 bacterial reduction vs. control, DBNPA: DBNPA alone or DBNPA part of DBNPA:bnpd:CTAC combination; for Dose required for >4 log10 bacterial reduction vs. control, bnpd: bnpd alone or bnpd part of DBNPA:bnpd:CTAC combination
Experimental: as §1, §2
as §3, with “DBNPA, bronopol, and” for “DBNPA and”, “CTAC are” for “CTAC is”, “g, deionized” for “g, DI”, “Table 10” for “Table 7”

[7] = HHT alone or HHT part of DBNPA/HHT combination
[8] = CTAC alone or CTAC part of DBNPA/CTAC combination
[9] = Day 3 after initial inoculation
[10] = Day 20 after initial inoculation
[11] = Day 27 after initial inoculation
[12] = tris nitro alone or tris nitro part of DBNPA/tris nitro combination
[13] = DBNPA alone or DBNPA part of DBNPA/CTAC combination
[14] = DBNPA alone or DBNPA part of DBNPA/HHT combination
[15] = DBNPA alone or DBNPA part of DBNPA/tris nitro combination

OCCN1CN(CCO)CN(CCO)C1 [HHT, hexahydro-1,3,5-tris(2-hydroxyethyl)-s-triazine]
Dosage required for complete bacterial reduction (ppm), HHT [1, 7]: 113.8 ppm
Dosage required for complete bacterial reduction (ppm), HHT [2, 7]: 94.2 ppm

ClC=CC[N+]12CN3CN(CN(C3)C1)C2 [CTAC, 1-(3-chloroallyl)-3,5,7-triaza-1-azoniaadamantane]
Dosage required for complete bacterial reduction (ppm), CTAC [1, 8]: 87.5 ppm
Dosage required for complete bacterial reduction (ppm), CTAC [2, 8]: >159 ppm
Dose required for ≧4 log10 bacteria reduction (ppm), CTAC [3, 9]: >750 ppm
Dose required for ≧4 log10 bacteria reduction (ppm), CTAC [3, 10]: >750 ppm
Lowest biocide concentration required for ≧99.9% bacterial reduction for 2 h, 1 day, and 7 days (ppm), CTAC [4, 8]: >360.0 ppm
Lowest biocide concentration required for ≧99.9% bacterial reduction for 2 h, 1 day, and 7 days (ppm), CTAC [5, 8]: 180 ppm
Dose required for >4 log10 bacterial reduction vs. control, CTAC [6, 9]: >750
Dose required for >4 log10 bacterial reduction vs. control, CTAC [6, 11]: >750

O=[N+]([O-])C(CO)(CO)CO [tris nitro, tris(hydroxymethyl)nitromethane]
Dosage required for complete bacterial reduction (ppm), tris nitro [1, 12]: 29.6 ppm
Dosage required for complete bacterial reduction (ppm), tris nitro [2, 12]: 104.6 ppm

N#CC(Br)(Br)C(N)=O [DBNPA, 2,2-dibromo-3-nitrilopropionamide]
Dosage required for complete bacterial reduction (ppm), DBNPA [1, 13]: 9.1 ppm
Dosage required for complete bacterial reduction (ppm), DBNPA [1, 14]: 7.0 ppm
Dosage required for complete bacterial reduction (ppm), DBNPA [1, 15]: 8.9 ppm
Dosage required for complete bacterial reduction (ppm), DBNPA [2, 13]: 8.9 ppm
Dosage required for complete bacterial reduction (ppm), DBNPA [2, 14]: 8.9 ppm
Dosage required for complete bacterial reduction (ppm), DBNPA [2, 15]: 9.9 ppm
Dose required for ≧4 log10 bacteria reduction (ppm), DBNPA [3, 9]: >167 ppm
Dose required for ≧4 log10 bacteria reduction (ppm), DBNPA [3, 10]: >250 ppm
Lowest biocide concentration required for ≧99.9% bacterial reduction for 2 h, 1 day, and 7 days (ppm), DBNPA [4, 13]: 60.0 ppm
Lowest biocide concentration required for ≧99.9% bacterial reduction for 2 h, 1 day, and 7 days (ppm), DBNPA [5, 13]: >120 ppm
Dose required for >4 log10 bacterial reduction vs. control, DBNPA [6, 9]: <12
Dose required for >4 log10 bacterial reduction vs. control, DBNPA [6, 11]: >75

O=[N+]([O-])C(Br)(CO)CO [bnpd, 2-bromo-2-nitropropane-1,3-diol]
Dose required for >4 log10 bacterial reduction vs. control, bnpd [6, 9]: 32
Dose required for >4 log10 bacterial reduction vs. control, bnpd [6, 11]: >200

From patent publication US9451768B2, “Biocidal compositions and methods of use” (priority 2009, dated 2016)
